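Following 48 hours of exposure in 96-well plates, responses at five concentrations were used to interpolate endpoints linearly. At the TGI there is no net growth.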
What was measured:
Experiment in all cases: inhibition of tumour cell growth, NCI panel, 48 h
[1] = tested on: NCI-H522 lung
[2] = tested on: U251 CNS
[3] = tested on: HOP-62 NSCLC
[4] = tested on: LOX IMVI melanoma
[5] = tested on: MDA-MB-231 breast
[6] = tested on: NCI-H23 lung
[7] = tested on: SF-295 CNS
[8] = tested on: TK-10 renal
[9] = tested on: CCRF-CEM leukemia
[10] = tested on: NCI-H226 lung
[11] = tested on: SN12C renal
[12] = tested on: M14 melanoma
[13] = tested on: SK-MEL-28 melanoma
[14] = tested on: SF-539 CNS
[15] = tested on: OVCAR-5 ovarian
[16] = tested on: COLO 205 colon
[17] = tested on: HS 578T breast
[18] = tested on: UACC-257 melanoma
[19] = tested on: MDA-MB-435
[20] = tested on: SK-OV-3 ovarian
[21] = tested on: EKVX NSCLC
[22] = tested on: HCT-15 colon
[23] = tested on: 786-0 renal
[24] = tested on: HCT-116 colon
[25] = tested on: OVCAR-8 ovarian
[26] = tested on: RPMI-8226 leukemia
[27] = tested on: NCI-H460 lung
[28] = tested on: BT-549 breast
[29] = tested on: SW-620 colon
[30] = tested on: SNB-75 CNS
[31] = tested on: SF-268 CNS
[32] = tested on: UO-31 renal
[33] = tested on: KM12 colon
[34] = tested on: A549 NSCLC
[35] = tested on: HL-60(TB) leukemia
[36] = tested on: SK-MEL-2 melanoma
[37] = tested on: DU-145 prostate
[38] = tested on: RXF 393 renal
[39] = tested on: K-562 leukemia
[40] = tested on: HCC-2998 colon
[41] = tested on: SK-MEL-5 melanoma
[42] = tested on: HT29 colon
[43] = tested on: UACC-62 melanoma
[44] = tested on: NCI/ADR-RES ovarian
[45] = tested on: MDA-N
[46] = tested on: MOLT-4 leukemia
[47] = tested on: MALME-3M melanoma
[48] = tested on: SNB-19 CNS
[49] = tested on: OVCAR-3 ovarian
[50] = tested on: OVCAR-4 ovarian
[51] = tested on: IGROV1 ovarian
[52] = tested on: SR leukemia
[53] = tested on: T-47D breast
[54] = tested on: CAKI-1 renal
[55] = tested on: PC-3 prostate
[56] = tested on: MCF7 breast
[57] = tested on: A498 renal
[58] = tested on: ACHN renal
[59] = tested on: HOP-92 NSCLC

With `CN(c1ccccc1Cl)S(=O)(=O)c1ccccc1[N+](=O)[O-]` the TGI [1] was greater than 100 µM, the TGI [2] was greater than 100 µM and the TGI [3] was greater than 100 µM. It also gave a TGI [4] greater than 100 µM, a TGI [5] greater than 100 µM and a TGI [6] greater than 100 µM. The TGI [7] was greater than 100 µM, the TGI [8] was greater than 100 µM and the TGI [9] was greater than 100 µM. For the same compound, the TGI [10] was greater than 100 µM, the TGI [11] was greater than 100 µM and the TGI [12] was 46.3 µM. For the same compound, the TGI [13] was greater than 100 µM, the TGI [14] was greater than 100 µM and the TGI [15] was greater than 100 µM. It also gave a TGI [16] greater than 100 µM, a TGI [17] greater than 100 µM and a TGI [18] greater than 100 µM. The TGI [19] was greater than 100 µM, the TGI [20] was greater than 100 µM and the TGI [21] was greater than 100 µM. It also gave a TGI [22] greater than 100 µM, a TGI [23] greater than 100 µM and a TGI [24] greater than 100 µM. It also gave a TGI [25] greater than 100 µM, a TGI [26] greater than 100 µM and a TGI [27] greater than 100 µM. It also gave a TGI [28] greater than 100 µM, a TGI [29] greater than 100 µM and a TGI [30] greater than 100 µM. For the same compound, the TGI [31] was greater than 100 µM, the TGI [32] was greater than 100 µM and the TGI [33] was greater than 100 µM. The TGI [34] was greater than 100 µM, the TGI [35] was greater than 100 µM and the TGI [36] was greater than 100 µM. The TGI [37] was greater than 100 µM, the TGI [38] was 90 µM and the TGI [39] was greater than 100 µM. The TGI [40] was greater than 100 µM, the TGI [41] was 28.9 µM and the TGI [42] was greater than 100 µM. It also gave a TGI [43] greater than 100 µM, a TGI [44] of 95.9 µM and a TGI [45] greater than 100 µM. For the same compound, the TGI [46] was greater than 100 µM, the TGI [47] was greater than 100 µM and the TGI [48] was greater than 100 µM. The TGI [49] was greater than 100 µM, the TGI [50] was greater than 100 µM and the TGI [51] was greater than 100 µM. For the same compound, the TGI [52] was greater than 100 µM, the TGI [53] was greater than 100 µM and the TGI [54] was greater than 100 µM. For the same compound, the TGI [55] was greater than 100 µM.
`O=C1O[C@]2(c3ccccc3)C(c3ccccc3)=C[C@]2(C(=O)c2ccccc2)C1=O` was tested, and the TGI [1] was 48.5 µM, the TGI [2] was 93.5 µM and the TGI [3] was greater than 100 µM. It also gave a TGI [4] of 79 µM, a TGI [5] of 99.1 µM and a TGI [6] greater than 100 µM. It also gave a TGI [7] greater than 100 µM, a TGI [8] of 73.5 µM and a TGI [10] of 98.6 µM. For the same compound, the TGI [11] was greater than 100 µM, the TGI [12] was greater than 100 µM and the TGI [13] was greater than 100 µM. The TGI [14] was 50.8 µM, the TGI [15] was greater than 100 µM and the TGI [16] was greater than 100 µM. The TGI [17] was greater than 100 µM, the TGI [18] was greater than 100 µM and the TGI [56] was 81.8 µM. For the same compound, the TGI [19] was greater than 100 µM, the TGI [20] was greater than 100 µM and the TGI [21] was greater than 100 µM. For the same compound, the TGI [22] was greater than 100 µM, the TGI [23] was 85.7 µM and the TGI [24] was greater than 100 µM. For the same compound, the TGI [57] was greater than 100 µM, the TGI [25] was greater than 100 µM and the TGI [26] was 64.9 µM. It also gave a TGI [27] of 71.6 µM, a TGI [28] greater than 100 µM and a TGI [29] of 45.1 µM. For the same compound, the TGI [30] was greater than 100 µM, the TGI [31] was greater than 100 µM and the TGI [32] was 61.1 µM. It also gave a TGI [33] greater than 100 µM, a TGI [34] greater than 100 µM and a TGI [35] of 22.4 µM. It also gave a TGI [36] of 74.6 µM, a TGI [37] greater than 100 µM and a TGI [58] greater than 100 µM. It also gave a TGI [38] of 5.13 µM, a TGI [59] of 64.8 µM and a TGI [39] of 54.3 µM. It also gave a TGI [40] of 39.2 µM, a TGI [41] greater than 100 µM and a TGI [42] greater than 100 µM. The TGI [43] was greater than 100 µM, the TGI [44] was greater than 100 µM and the TGI [45] was greater than 100 µM. The TGI [46] was 22.3 µM, the TGI [47] was greater than 100 µM and the TGI [48] was greater than 100 µM. The TGI [49] was greater than 100 µM, the TGI [50] was greater than 100 µM and the TGI [51] was greater than 100 µM. For the same compound, the TGI [52] was 30.7 µM, the TGI [53] was greater than 100 µM and the TGI [54] was greater than 100 µM. The TGI [55] was greater than 100 µM.
With `CC(C)CCC/C(CBr)=C(\Cl)CCl` the TGI [1] was 0.409 µM, the TGI [2] was 13.4 µM and the TGI [3] was 20.8 µM. The TGI [4] was 0.542 µM, the TGI [5] was 8.34 µM and the TGI [6] was 8.11 µM. It also gave a TGI [7] of 26.5 µM, a TGI [8] of 3.72 µM and a TGI [10] of 25.7 µM. The TGI [11] was 8.85 µM, the TGI [12] was 4.23 µM and the TGI [13] was 5.19 µM. The TGI [14] was 23.6 µM, the TGI [15] was 29.1 µM and the TGI [16] was 3.54 µM. The TGI [17] was 7.46 µM, the TGI [18] was 4.78 µM and the TGI [56] was 12.9 µM. For the same compound, the TGI [19] was 6.25 µM, the TGI [20] was 22.3 µM and the TGI [21] was 30.3 µM. It also gave a TGI [22] of 11.4 µM, a TGI [23] of 3.67 µM and a TGI [24] of 7.03 µM. It also gave a TGI [57] of 35.2 µM, a TGI [25] of 3.86 µM and a TGI [27] of 18.5 µM. The TGI [28] was 3.52 µM, the TGI [29] was 3.07 µM and the TGI [30] was 4.71 µM. It also gave a TGI [31] of 9.89 µM, a TGI [32] of 8.4 µM and a TGI [33] of 5.51 µM. The TGI [34] was 31 µM, the TGI [36] was 2.97 µM and the TGI [37] was 17.2 µM. For the same compound, the TGI [58] was 23.3 µM, the TGI [38] was 8.17 µM and the TGI [59] was 4.54 µM. It also gave a TGI [40] of 21 µM, a TGI [41] of 6 µM and a TGI [42] of 5.97 µM. It also gave a TGI [44] of 10.7 µM, a TGI [45] of 3.91 µM and a TGI [46] of 2.88 µM. It also gave a TGI [47] of 7.88 µM, a TGI [48] of 28.6 µM and a TGI [49] of 6.73 µM. The TGI [50] was 2.93 µM, the TGI [51] was 4.05 µM and the TGI [54] was 9.35 µM. It also gave a TGI [55] of 13.2 µM.
`O=C(c1ccccc1)N1C(=S)N(c2ccc([N+](=O)[O-])cc2)C(=Nc2ccccc2)C1=Nc1ccccc1` gave a TGI [1] greater than 100 µM, a TGI [2] greater than 100 µM and a TGI [3] greater than 100 µM. For the same compound, the TGI [5] was greater than 100 µM, the TGI [6] was greater than 100 µM and the TGI [7] was greater than 100 µM. The TGI [8] was greater than 100 µM, the TGI [10] was greater than 100 µM and the TGI [11] was greater than 100 µM. For the same compound, the TGI [12] was greater than 100 µM, the TGI [13] was greater than 100 µM and the TGI [14] was greater than 100 µM. It also gave a TGI [15] greater than 100 µM, a TGI [16] greater than 100 µM and a TGI [17] greater than 100 µM. It also gave a TGI [18] greater than 100 µM, a TGI [56] greater than 100 µM and a TGI [19] greater than 100 µM. The TGI [20] was greater than 100 µM, the TGI [21] was greater than 100 µM and the TGI [22] was greater than 100 µM. The TGI [23] was greater than 100 µM, the TGI [25] was greater than 100 µM and the TGI [26] was greater than 100 µM. The TGI [27] was greater than 100 µM, the TGI [28] was greater than 100 µM and the TGI [29] was greater than 100 µM. For the same compound, the TGI [30] was greater than 100 µM, the TGI [31] was greater than 100 µM and the TGI [32] was greater than 100 µM. For the same compound, the TGI [33] was greater than 100 µM, the TGI [34] was greater than 100 µM and the TGI [36] was greater than 100 µM. For the same compound, the TGI [37] was greater than 100 µM, the TGI [58] was greater than 100 µM and the TGI [38] was greater than 100 µM. It also gave a TGI [59] greater than 100 µM, a TGI [39] greater than 100 µM and a TGI [40] greater than 100 µM. It also gave a TGI [41] greater than 100 µM, a TGI [42] greater than 100 µM and a TGI [43] greater than 100 µM. For the same compound, the TGI [44] was greater than 100 µM, the TGI [45] was greater than 100 µM and the TGI [46] was greater than 100 µM. For the same compound, the TGI [47] was greater than 100 µM, the TGI [48] was greater than 100 µM and the TGI [49] was greater than 100 µM. The TGI [51] was greater than 100 µM, the TGI [52] was greater than 100 µM and the TGI [53] was greater than 100 µM. For the same compound, the TGI [54] was greater than 100 µM and the TGI [55] was greater than 100 µM.

Reference: PubChem BioAssay (NCI)
